# Source: ChEMBL document CHEMBL1157538, “Discovery of a potent, selective, and orally bioavailable c-Met inhibitor: 1-(2-hydroxy-2-methylpropyl)-N-(5-(7-methoxyquinolin-4-yloxy)pyridin-2-yl)-5-methyl-3-oxo-2-phenyl-2,3-dihydro-1H-pyrazole-4-carboxamide (AMG 458)” (J Med Chem, 2008)
# Assays:
# [1] = Inhibition of PDGF
# [2] = biological target: Tyrosine-protein kinase CSK (Homo sapiens, UniProt P41240); test: Inhibition of CSK
# [3] = biological target: Hepatocyte growth factor receptor (Homo sapiens, UniProt P08581, H1094R); test: Inhibition c-Met H1094R mutant by HTRF assay
# [4] = Intrinsic clearance in human liver microsome; type: ADME; details: liver microsomes
# [5] = Clearance in Beagle dog at 1 mg/kg, iv or 10 mg/kg, po; type: ADME, organism-based, Canis lupus familiaris; details: in vivo
# [6] = biological target: Tyrosine-protein kinase Blk (Homo sapiens, UniProt P51451); test: Inhibition of BLK
# [7] = biological target: T1, Hepatocyte growth factor receptor (Homo sapiens, UniProt P08581); test: Inhibition of human c-Met by HTRF assay
# [8] = biological target: Hepatocyte growth factor receptor (Homo sapiens, UniProt P08581, D1228H); test: Inhibition c-Met D1228H mutant by HTRF assay
# [9] = Antitumor activity in human U87MG cells xenografted orally dosed CD1 NU/NU mouse assessed as tumor growth inhibition after 14 days; type: functional, U-87MG ATCC; details: U-87 MG, po, 336 h
# [10] = biological target: Hepatocyte growth factor receptor (Homo sapiens, UniProt P08581, Y1230H); test: Inhibition c-Met Y1230H mutant by HTRF assay
# [11] = Intrinsic clearance in Sprague-Dawley rat liver microsome; type: ADME; details: liver microsomes
# [12] = biological target: Tyrosine-protein kinase Fgr (Homo sapiens, UniProt P09769); test: Inhibition of FGR
# [13] = Inhibition of RON
# [14] = biological target: T2, Receptor-type tyrosine-protein kinase FLT3 (Homo sapiens, UniProt P36888); test: Inhibition of FLT3
# T2 sequence (P36888 whole entry): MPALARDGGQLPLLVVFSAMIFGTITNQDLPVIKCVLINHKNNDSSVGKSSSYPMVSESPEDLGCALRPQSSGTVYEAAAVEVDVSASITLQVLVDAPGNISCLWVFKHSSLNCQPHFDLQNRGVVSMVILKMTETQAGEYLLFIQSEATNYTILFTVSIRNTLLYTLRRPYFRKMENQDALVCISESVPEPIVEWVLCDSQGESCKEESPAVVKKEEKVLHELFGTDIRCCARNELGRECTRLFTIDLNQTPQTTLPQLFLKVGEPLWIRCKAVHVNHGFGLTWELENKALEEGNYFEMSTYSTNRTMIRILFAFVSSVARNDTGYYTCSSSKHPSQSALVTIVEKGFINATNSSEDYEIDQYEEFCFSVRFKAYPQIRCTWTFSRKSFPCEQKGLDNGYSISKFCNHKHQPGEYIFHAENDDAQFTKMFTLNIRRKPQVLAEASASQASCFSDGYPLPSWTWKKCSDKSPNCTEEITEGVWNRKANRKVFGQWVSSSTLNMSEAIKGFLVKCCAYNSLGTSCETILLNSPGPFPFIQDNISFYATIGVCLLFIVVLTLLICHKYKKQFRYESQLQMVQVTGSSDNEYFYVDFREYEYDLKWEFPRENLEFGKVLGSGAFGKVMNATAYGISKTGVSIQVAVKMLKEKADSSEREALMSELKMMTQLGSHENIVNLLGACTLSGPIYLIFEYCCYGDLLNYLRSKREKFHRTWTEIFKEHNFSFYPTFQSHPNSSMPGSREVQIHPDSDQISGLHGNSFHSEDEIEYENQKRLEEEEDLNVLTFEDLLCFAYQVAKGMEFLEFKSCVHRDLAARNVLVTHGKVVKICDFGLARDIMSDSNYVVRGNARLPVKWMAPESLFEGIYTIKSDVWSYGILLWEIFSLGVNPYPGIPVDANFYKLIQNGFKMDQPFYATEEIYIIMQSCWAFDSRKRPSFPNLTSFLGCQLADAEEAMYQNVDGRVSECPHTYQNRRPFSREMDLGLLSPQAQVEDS
# [15] = Clearance in BALB/c mouse at 1 mg/kg, iv or 10 mg/kg, po; type: ADME, organism-based; details: in vivo
# [16] = biological target: Hepatocyte growth factor receptor (Homo sapiens, UniProt P08581, M1250T); test: Inhibition c-Met M1250T mutant by HTRF assay
# [17] = Drug level in po dosed BALB/c mouse plasma after 6 hrs; type: ADME, organism-based
# [18] = Clearance in Sprague-Dawley rat at 1 mg/kg, iv or 10 mg/kg, po; type: ADME, organism-based; details: in vivo
# [19] = biological target: T1, Hepatocyte growth factor receptor; test: Inhibition of HGF-mediated c-Met phosphorylation in human PC3 cells; type: cell-based, PC-3
# [20] = Inhibition of Aurora1
# [21] = Intrinsic clearance in Beagle dog liver microsome; type: ADME, Canis lupus familiaris; details: liver microsomes
# [22] = Terminal half life in BALB/c mouse; type: ADME, organism-based; details: in vivo, read-out: beta t1/2
# [23] = Oral bioavailability in Sprague-Dawley rat at 10 mg/kg; type: ADME, organism-based; details: in vivo
# [24] = biological target: Tyrosine-protein kinase Fes/Fps (Homo sapiens, UniProt P07332); test: Inhibition of FES
# [25] = Half life in cynomolgus monkey at 1 mg/kg, iv or 10 mg/kg, po; type: ADME, organism-based, Macaca fascicularis; details: in vivo
# [26] = Half life in Sprague-Dawley rat at 1 mg/kg, iv or 10 mg/kg, po; type: ADME, organism-based; details: in vivo
# [27] = Oral bioavailability in cynomolgus monkey at 10 mg/kg; type: ADME, organism-based, Macaca fascicularis; details: in vivo
# [28] = tested on: Mus musculus; test: Inhibition of HGF-mediated c-Met phosphorylation in po dosed BALB/c mouse liver after 6 hrs; type: functional
# [29] = tested on: Mus musculus; test: Toxicity in human U87MG cells xenografted CD1 NU/NU mouse assessed as effect on body weight at 30 mg/kg BID for 14 days; type: organism-based, U-87MG ATCC; design: dose 30 mg/kg; details: in vivo, 336 h
# [30] = biological target: Tyrosine-protein kinase Lyn (Homo sapiens, UniProt P07948); test: Inhibition of Lyn
# [31] = tested on: NIH3T3; test: Antitumor activity in TPR-Met expressing […] NIH3T3 cells xenografted in po dosed mouse assessed as tumor growth inhibition after 24 hrs; type: functional
# [32] = Clearance in cynomolgus monkey at 1 mg/kg, iv or 10 mg/kg, po; type: ADME, organism-based, Macaca fascicularis; details: in vivo
# [33] = Volume of distribution at steady state in Sprague-Dawley rat at 1 mg/kg, iv or 10 mg/kg, po; type: ADME, organism-based; details: in vivo
# [34] = tested on: Mus musculus; test: Toxicity in human U87MG cells xenografted CD1 NU/NU mouse assessed as effect on body weight at 30 mg/kg and 100 mg/kg, qd for 14 days; type: organism-based, U-87MG ATCC; details: in vivo, 336 h
# [35] = Inhibition c-Met […] mutant
# [36] = biological target: T3, Cytoplasmic tyrosine-protein kinase BMX (Homo sapiens, UniProt P51813); test: Inhibition of BMX
# T3 sequence (P51813 whole entry): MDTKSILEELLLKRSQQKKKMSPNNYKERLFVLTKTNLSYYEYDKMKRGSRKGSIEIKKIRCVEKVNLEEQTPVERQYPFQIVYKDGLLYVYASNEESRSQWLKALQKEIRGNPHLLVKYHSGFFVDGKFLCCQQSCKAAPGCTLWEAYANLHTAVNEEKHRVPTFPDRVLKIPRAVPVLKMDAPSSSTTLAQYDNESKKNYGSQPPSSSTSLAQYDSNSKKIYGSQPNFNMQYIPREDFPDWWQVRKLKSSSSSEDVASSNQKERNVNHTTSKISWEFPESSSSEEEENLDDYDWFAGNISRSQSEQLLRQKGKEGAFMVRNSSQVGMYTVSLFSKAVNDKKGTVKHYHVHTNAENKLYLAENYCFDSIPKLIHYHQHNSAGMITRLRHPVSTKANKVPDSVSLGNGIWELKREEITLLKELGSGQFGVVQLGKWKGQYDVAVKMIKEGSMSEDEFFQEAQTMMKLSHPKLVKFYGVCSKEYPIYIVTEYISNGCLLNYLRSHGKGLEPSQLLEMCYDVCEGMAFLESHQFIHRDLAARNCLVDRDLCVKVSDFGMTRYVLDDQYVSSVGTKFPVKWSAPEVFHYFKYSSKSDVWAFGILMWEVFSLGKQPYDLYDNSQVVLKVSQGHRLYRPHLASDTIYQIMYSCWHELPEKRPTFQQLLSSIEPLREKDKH
# [37] = biological target: T4, Hepatocyte growth factor receptor (Mus musculus, UniProt P16056); test: Inhibition of HGF-mediated c-Met phosphorylation in mouse CT26 cells; type: cell-based
# [38] = biological target: T4, Hepatocyte growth factor receptor; test: Inhibition of mouse c-Met by HTRF assay
# [39] = Half life in BALB/c mouse at 1 mg/kg, iv or 10 mg/kg, po; type: ADME, organism-based; details: in vivo
# [40] = Intrinsic clearance in cynomolgus monkey liver microsome; type: ADME, Macaca fascicularis; details: liver microsomes
# [41] = Half life in Beagle dog at 1 mg/kg, iv or 10 mg/kg, po; type: ADME, organism-based, Canis lupus familiaris; details: in vivo
# [42] = Volume of distribution at steady state in cynomolgus monkey at 1 mg/kg, iv or 10 mg/kg, po; type: ADME, organism-based, Macaca fascicularis; details: in vivo, read-out: Vdss
# [43] = Permeability from apical to basolateral side of human Caco-2 cell monolayer; type: ADME, cell-based; details: read-out: permeability
# [44] = Volume of distribution at steady state in Beagle dog at 1 mg/kg, iv or 10 mg/kg, po; type: ADME, organism-based, Canis lupus familiaris; details: in vivo, read-out: Vdss
# [45] = Oral bioavailability in Beagle dog at 10 mg/kg; type: ADME, organism-based, Canis lupus familiaris; details: in vivo
# [46] = biological target: T5, Tyrosine-protein kinase ITK/TSK (Homo sapiens, UniProt Q08881); test: Inhibition of ITK
# T5 sequence (Q08881 whole entry): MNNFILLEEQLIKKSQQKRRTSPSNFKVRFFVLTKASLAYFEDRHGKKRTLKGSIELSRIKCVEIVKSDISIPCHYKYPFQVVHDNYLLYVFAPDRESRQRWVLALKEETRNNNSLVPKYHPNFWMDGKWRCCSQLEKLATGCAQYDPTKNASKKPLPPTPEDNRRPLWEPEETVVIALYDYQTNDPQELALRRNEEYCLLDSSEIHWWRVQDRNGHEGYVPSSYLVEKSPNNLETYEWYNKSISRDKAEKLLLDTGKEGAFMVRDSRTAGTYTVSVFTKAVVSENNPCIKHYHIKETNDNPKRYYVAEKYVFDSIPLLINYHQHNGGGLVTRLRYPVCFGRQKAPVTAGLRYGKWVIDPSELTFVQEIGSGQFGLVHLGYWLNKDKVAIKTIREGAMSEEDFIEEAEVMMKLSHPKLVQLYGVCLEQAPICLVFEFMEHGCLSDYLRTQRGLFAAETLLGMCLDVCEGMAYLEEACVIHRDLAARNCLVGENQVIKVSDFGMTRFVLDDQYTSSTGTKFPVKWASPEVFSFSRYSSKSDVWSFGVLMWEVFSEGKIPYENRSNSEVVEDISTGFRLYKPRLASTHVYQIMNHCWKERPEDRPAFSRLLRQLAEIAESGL
# [47] = Intrinsic clearance in BALB/c mouse liver microsome; type: ADME; details: liver microsomes
# [48] = biological target: Macrophage colony-stimulating factor 1 receptor (Homo sapiens, UniProt P07333)
# [49] = Apparent permeability across pig LLC-PK1 cells; type: ADME, cell-based, Sus scrofa; details: read-out: permeability
# [50] = Oral bioavailability in BALB/c mouse at 10 mg/kg; type: ADME, organism-based; details: in vivo
# [51] = Terminal half life in Sprague-Dawley rat; type: ADME, organism-based; details: in vivo, read-out: beta t1/2
# [52] = Volume of distribution at steady state in BALB/c mouse at 1 mg/kg, iv or 10 mg/kg, po; type: ADME, organism-based; details: in vivo, read-out: Vdss
compound,measurement,setting,value
COc1ccc2c(Oc3ccc(NC(=O)c4c(C)n(CC(C)(C)O)n(-c5ccccc5)c4=O)nc3)ccnc2c1,IC50,[1],0.12 µM
same,IC50,[2],0.165 µM
same,Ki,[3],0.0005 µM
same,microsomal CLint,[4],18 µL/min/mg
same,clearance,[5],0.34 L/h/kg
same,IC50,[6],0.519 µM
same,Ki,[7],0.0012 µM
same,Ki,[8],0.0022 µM
same,ED50,[9],16 mg/kg
same,ED90,[9],59 mg/kg
same,Ki,[10],0.0045 µM
same,microsomal CLint,[11],62 µL/min/mg
same,IC50,[12],0.328 µM
same,IC50,[13],0.008 µM
same,IC50,[14],0.391 µM
same,clearance,[15],0.16 L/h/kg
same,Ki,[16],0.0041 µM
same,concentration at 6 h,[17],15 µM
same,clearance,[18],0.73 L/h/kg
same,IC50,[19],0.06 µM
same,IC50,[20],0.28 µM
same,microsomal CLint,[21],8 µL/min/mg
same,half-life,[22],< 2 h
same,bioavailability,[23],100%
same,IC50,[24],0.706 µM
same,half-life,[25],5.7 h
same,half-life,[26],1 h
same,bioavailability,[27],78%
same,ED90,[28],30 mg/kg
same,Activity,[29],Non-toxic
same,IC50,[30],0.506 µM
same,ED50,[31],12 mg/kg
same,ED90,[31],34 mg/kg
same,clearance,[32],0.1 L/h/kg
same,Vd,[33],0.62 L/kg
same,Activity,[34],Non-toxic
same,Ki,[35],0.0011 µM
same,IC50,[36],0.363 µM
same,IC50,[37],0.12 µM
same,Ki,[38],0.002 µM
same,half-life,[39],1.3 h
same,microsomal CLint,[40],8 µL/min/mg
same,half-life,[41],2.8 h
same,Vd,[42],0.56 L/kg
same,Papp A→B,[43],320 nm/s
same,Vd,[44],0.75 L/kg
same,bioavailability,[45],100%
same,IC50,[46],0.062 µM
same,microsomal CLint,[47],< 5 µL/min/mg
same,IC50,[48],0.238 µM
same,Papp,[49],270 nm/s
same,bioavailability,[50],100%
same,half-life,[51],< 2 h
same,Vd,[52],0.31 L/kg
